Reference: patent US20230174526A1, “BENZOTHIAZOLYL BIARYL COMPOUND, AND PREPARATION METHOD AND USE” (SHANGHAI RINGENE BIOPHARMA CO., LTD., priority 2020, published 2023)

Key:
CYP3A4 = molecular target: T1, CYP3A4 (Homo sapiens, UniProt P08684); assay: Direct inhibition test (DI test), CYP3A4; assay type: in vitro ADME; conditions: human liver microsomes
T1 construct: a system of 100 µL of human liver microsomes (final concentration 0.2 mg/mL); from tissue; host or cells: human liver microsomes
Procedure: Direct inhibition test (DI test): direct inhibition warm incubation was performed with a system of 100 µL of human liver microsomes (final concentration 0.2 mg/mL) containing NADPH (final concentration 1 mM), 10 µM compound, positive inhibitor cocktail (ketoconazole 10 µM, quinidine 10 µM, sulfobenzyrazole 100 µM, α-naphthoflavone 10 µM, tranylcypromine 1000 µM), a negative control (BPS with 0.1% DMSO) and a mixed probe substrate (midazolam 10 µM, testosterone 100 µM, dextromethorphan 10 µM, diclofenac 20 µM, phenacetin100 µM, mephenytoin100 µM), and the reaction was terminated after a warm incubation for 20 min.The relative enzyme activity was calculated by measuring the relative amount of metabolites produced.

[1] = Metabolic stability assay, monkey liver microsomes; assay type: in vitro ADME; conditions: monkey liver microsomes 0.5 mg/mL, 1 µM compound, read-out: Liver microsomal stability (T½ /min) monkey
Procedure: (§1) Metabolic stability assay: A warm incubation for metabolic stability was performed with a system of 150 µL of liver microsomes (final concentration 0.5 mg/mL) containing NADPH (final concentration 1 mM), 1 µM of the test compound and positive control midazolam or negative control atenolol, and the reaction was terminated with acetonitrile containing tinidazole at 0 min, 5 min, 10 min and 30 min, respectively. The reaction was vortexed for 10 min and centrifuged at 15000 rmp for 10 min, and 50 µL of supernatant was taken into the 96-well plate for sampling. The metabolic stability of the compound was calculated by measuring the relative reduction of the drugs.

[2] = Metabolic stability assay, human liver microsomes; assay type: in vitro ADME; conditions: human liver microsomes 0.5 mg/mL, 1 µM compound, read-out: Liver microsomal stability (T½ /min) human
Procedure: as §1

CYP2C8 = molecular target: T2, CYP2C8 (Homo sapiens, UniProt P10632); assay: Direct inhibition test (DI test), CYP2C8; assay type: in vitro ADME; conditions: human liver microsomes
T2 sequence (P10632 1-490): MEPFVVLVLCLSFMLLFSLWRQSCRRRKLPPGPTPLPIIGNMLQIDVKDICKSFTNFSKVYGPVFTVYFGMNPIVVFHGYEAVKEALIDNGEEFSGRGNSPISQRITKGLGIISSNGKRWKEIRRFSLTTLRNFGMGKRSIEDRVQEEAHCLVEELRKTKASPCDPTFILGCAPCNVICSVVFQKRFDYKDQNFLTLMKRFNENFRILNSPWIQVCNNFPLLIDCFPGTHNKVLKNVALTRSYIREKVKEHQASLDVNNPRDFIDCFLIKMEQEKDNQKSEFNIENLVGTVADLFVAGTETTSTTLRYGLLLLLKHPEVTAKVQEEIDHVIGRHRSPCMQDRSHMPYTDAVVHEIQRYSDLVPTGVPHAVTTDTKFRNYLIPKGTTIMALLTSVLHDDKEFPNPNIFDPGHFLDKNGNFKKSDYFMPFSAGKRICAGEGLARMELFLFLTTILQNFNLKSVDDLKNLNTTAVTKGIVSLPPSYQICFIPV

[3] = Metabolic stability assay, mouse liver microsomes; assay type: in vitro ADME; conditions: mouse liver microsomes 0.5 mg/mL, 1 µM compound, read-out: Liver microsomal stability (T½ /min) Mouse
Procedure: as §1

[4] = Metabolic stability assay, rat liver microsomes; assay type: in vitro ADME; conditions: rat liver microsomes 0.5 mg/mL, 1 µM compound, read-out: Liver microsomal stability (T½ /min) Rat
Procedure: as §1

[5] = system: MiaPaca-2 cells (pancreatic cancer); assay: Proliferation test method 1 (2D, MTT), MiaPaca-2; assay type: cell-based; conditions: Homo sapiens, MIA PaCa-2, 2D, 5-7 days, read-out: IC50/nM proliferation inhibitory activity on MiaPaca-2 cells
Procedure: Test method 1 (2D):NCI-H358 (lung cancer) and MiaPaca-2 cells (pancreatic cancer) cells (100 µL/well, 20,000 cells/mL) were inoculated in 96-well culture plates supplemented with 10% fetal bovine serum and 1% penicillin/streptomycin sulfate, respectively.Using 0.5% dimethyl sulfoxide as a blank control, cells were treated with a solution of the compound to be tested at a starting concentration of 10 µM, tripled diluted testing solution of the compound in eight gradients were used to treat cells, and then incubated in a 5% CO2 incubator for a certain period of time (5-7 days).At the end of incubation, 10 µL of MTT stock solution (5 mg/mL) was added to each well.The culture plates were incubated at 37° C. for 4 h and then the medium was removed.Dimethyl sulfoxide (100 µL) was added to each well and then shaken sufficiently. The absorbance of the product formazanwas measured at 570 nm on the Thermo Scientific Varioskan Flash multimode reader.IC50 values were obtained by fitting dose-response data into a three-parameter nonlinear regression model using GraphPad Prism 6.0 software.

NCI-H358 cells = assay: Proliferation test method 2 (3D, Cell Titer Glo 3D), NCI-H358; assay type: cell-based; conditions: Homo sapiens, NCI-H358, 96 h, read-out: IC50 cell proliferation inhibitory activity against NCI-H358
Procedure: (§2) Test method 2 (3D): The tumor cells in the logarithmic growth phase were diluted with culture solution to a certain concentration and inoculated on the 96-well plate on the ultra-low attachment surface, and the culture medium was 80 µL/well. Cells were incubated overnight at 37° C. in a humidity chamber. On the second day, a series of diluted test compounds (10 concentrations, 3 times dilution) were added to the plate, 20 µL/well, incubated in an incubator for 96h.The plates are removed and placed at room temperature and incubated with an equal volume of Cell Titer Glo®3D reagent for 1 h. The signal is detected by the En Vision™ plate reader. […] A four-parameter nonlinear regression curve was fitted to the percent inhibition for each concentration of the compound and the IC50 was calculated.

MiaPaca-2 cells = assay: Proliferation test method 2 (3D, Cell Titer Glo 3D), MiaPaca-2; assay type: cell-based; conditions: Homo sapiens, MIA PaCa-2, 96 h, read-out: IC50 cell proliferation inhibitory activity against MiaPaca-2
Procedure: as §2

[6] = system: transplanted tumor of MiaPaca-2, NCI-H358 tumor cells; assay: Growth inhibition of transplanted tumor in nude mice; assay type: in vivo; conditions: 10 mg/kg orally, after two weeks of administration
Procedure: The tumor tissues in the peak growth period were cut into 1.5 mm^3 and inoculated into the right axillary subcutis of nude mice under aseptic conditions. The subcutaneous transplanted tumors of nude mice were measured by vernier calipers for the diameter of the transplanted tumors, and the animals were randomly grouped when the average volume of the tumors reached about 130 mm^3.The example compound (injection water containing 1% Tween 80 was prepared to the desired concentration and then left to be used) was administered orally at the given dose daily for three weeks, and the solvent control group was given an equal amount of solvent. The transplanted tumor diameter was measured twice a week throughout the experiment, and the mice were weighed at the same time.The tumor volume (TV) was calculated by the formula: TV = ½×a×b^2, where a and b are the length and width, respectively.

T1 sequence (P08684 whole entry): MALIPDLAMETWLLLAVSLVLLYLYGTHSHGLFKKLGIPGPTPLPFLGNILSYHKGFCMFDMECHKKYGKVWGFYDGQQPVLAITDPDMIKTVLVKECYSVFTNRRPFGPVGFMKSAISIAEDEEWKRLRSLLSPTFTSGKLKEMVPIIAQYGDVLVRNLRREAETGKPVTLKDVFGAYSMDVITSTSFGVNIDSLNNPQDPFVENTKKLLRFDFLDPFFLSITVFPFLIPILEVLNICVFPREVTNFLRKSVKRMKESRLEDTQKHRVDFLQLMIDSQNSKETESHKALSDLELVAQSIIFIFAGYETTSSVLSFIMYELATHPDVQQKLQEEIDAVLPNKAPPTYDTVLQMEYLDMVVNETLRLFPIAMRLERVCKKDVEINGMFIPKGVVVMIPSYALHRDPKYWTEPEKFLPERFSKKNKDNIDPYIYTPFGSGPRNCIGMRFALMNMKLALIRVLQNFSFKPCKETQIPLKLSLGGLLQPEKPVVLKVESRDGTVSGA

| IC50 (CYP3A4) [µM] | half-life at 1 µM [1] [min] | half-life at 1 µM [2] [min] | IC50 at 20 min (CYP2C8) [µM] | half-life at 1 µM [4] [min] | IC50 (NCI-H358 cells) [µM] | IC50 (MiaPaca-2 cells) [µM] | SMILES | half-life at 1 µM [3] [min] | IC50 [5] [nM] | tumor regression [6] |
| --- | --- | --- | --- | --- | --- | --- | --- | --- | --- | --- |
| > 10 | > 30 | > 30 | > 10 | – | – | – | C=CC(=O)N1CCN(c2c(C#N)c(OC[C@@H]3CCCN3C)nc3c(F)c(-c4ccc(F)c5sc(N)nc45)c(Cl)cc23)CC1 [Example 3, 4-(4-Piperazinylacryloylpiperazin-1-yl)-7-(2-Amino-7-Fluorobenzo[d]Thiazol-4-yl)-6-Chloro-8-Fluoro-2-(((S)-1-Methylpyrrolidin-2-Yl)Methoxy)Quinoline-3-Cyano] | – | – | – |
| > 10 | – | > 30 | > 10 | > 30 | < 0.2 | < 0.2 | C=CC(=O)N1CCN(c2nc(OC[C@@H]3CCCN3C)nc3c(F)c(-c4ccc(F)c5sc(N)nc45)c(Cl)cc23)C[C@H]1C [Example 11, 1-((2R)-4-(7-(2-Amino-7-Fluorobenzo [d] Thiazol-4-yl) -6-Chloro-8-Fluoro-2-(((S)-1-Methylpyrrolidin-2-yl) Methoxy) Quinazolin-4-yl)-2-Methylpiperazin-1-yl) Prop-2-En-1-One] | – | – | – |

Second part, the compound before the results:

| SMILES | IC50 (CYP3A4) [µM] | half-life at 1 µM [1] [min] | half-life at 1 µM [2] [min] | IC50 at 20 min (CYP2C8) [µM] | half-life at 1 µM [4] [min] | IC50 (NCI-H358 cells) [µM] | IC50 (MiaPaca-2 cells) [µM] | half-life at 1 µM [3] [min] | IC50 [5] [nM] | tumor regression [6] |
| --- | --- | --- | --- | --- | --- | --- | --- | --- | --- | --- |
| C=CC(=O)N1C[C@@H]2C(=O)N(C)c3cnc4c(F)c(-c5ccc(F)c6sc(N)nc56)c(Cl)cc4c3N2C[C@H]1C (single isomer, unassigned) [Example 17-1] | > 10 | – | – | > 10 | > 30 | – | – | > 30 | 24.8 | – |
| C=CC(=O)N1CCN(c2c(C#N)c(N3CC(N(C)C)C3)nc3c(F)c(-c4ccc(F)c5sc(N)nc45)c(Cl)cc23)CC1 [Example 21, 4-(4-acryloyl Piperazin-1-yl)-7-(2-Amino-7-Fluorobenzo [d] Thiazol-4-yl) -6-Chloro-2-(3-(Dimethylamino) Azetidine-1-yl)-8-Fluoroquinolin-3 -Cyano] | > 10 | > 30 | – | > 10 | > 30 | – | – | – | – | – |
| C=CC(=O)N1CCN(c2c(C#N)cnc3c(F)c(-c4ccc(F)c5sc(N)nc45)c(Cl)cc23)CC1 [Example 8] | > 10 | > 30 | – | > 10 | > 30 | < 0.2 | < 0.2 | > 30 | – | tumor regression was achieved |
